Results taken from patent US8192962B2, “Processes for detecting toxic substances” (Daikin Industries, Ltd., priority 2001, dated 2012).

Test system: Genes belonging to other category
Assay: DNA chip mRNA expression in yeast, genes belonging to other category (Table 9)
Assay type: cell-based, Saccharomyces cerevisiae S288C
Description: Yeast (Saccharomyces cerevisiae S288C (α SUC2mal mel gap2 CUP1)) were incubated at 25° C. on YPD medium (yeast extract 1%, polypepton 2%, glucose 2%). One of toxic chemical substances was added to the cells at logarithmic growth phase, and the cells were further incubated for two hours. Cells were cultured without any chemical substance in the same condition, and were used as control. Concentrations of the chemical substances were defined to inhibit the growth of the yeast but not lead to death.
After completion of the incubation, the culture was centrifuged to collect the cells. To the cells, sodium acetate buffer (50 mM sodium acetate, 10 mM EDTA, 1% SDS) was added, and the mixture was shaken at 65° C. for five minutes, followed by returning to room temperature, and obtaining the supernatant, of which the procedures were repeated two times. To the supernatant, ½ amount of a solution of phenol/chloroform was added, and the mixture was centrifuged to give a supernatant, which was added with an equal amount of chloroform, and the mixture was centrifuged to give a supernatant. To the supernatant, an equal amount of isopropanol containing 0.3 M sodium acetate was added, and the mixture was allowed to stand at room temperature for 30 minutes, after which the mixture was centrifuged to give a sediment of the whole RNAs. Seventy % ethanol was added to the sediment, and the mixture was again centrifuged to give a sediment, which was then dried and dissolved in water. mRNA was isolated from the whole RNAs as followings. In view of the fact that a poly A chain is attached to the 3′ terminus of mRNA, a polynucleotide having a poly T structure which was immobilized on the surface of latex beads was used to trap the mRNA, and then the mRNA was washed and eluted with spine column (Oligotex-dT30<Super>mRNA Purification Kit, Takara). Reverse transcription of the mRNA was conducted with a reverse transcriptase (Super Script II Reverse Transcriptase; catalogue No. 18064-014, GibcoBRL) using fluorescence-labeled nucleotides to give cDNAs that were introduced with Cy3-dUTP or Cy5-dUTP during the reverse transcription.
The labeled cDNAs were dissolved in TE buffer (10mM Tris-HCl/1 mM EDTA, pH8.0), and the solution was dropped on the DNA chip containing the whole genes of yeast (DNA Chip Research Inc. Japan) so that the cDNAs were hybridized on the DNA chip at 65° C. for over 12 hours. The fluoresces intensity of the DNA chip was read with a scanner, and the ratio relative to the fluorescence intensity resulting from the absence of chemical substance was estimated as the following, which is shown in Tables 1 to 9: […]

Measured: The level of expressed mRNA in the presence of chemical substance/The level of expressed mRNA in the absence of chemical substance

Na2As [(1)]
1.8: yeast gene YOR036W
1.4: yeast gene YKL013C | yeast gene YKL096W
5.5: yeast gene YLR327C
1.7: yeast gene YLR178C
2.1: yeast gene YNL093W
1.0: yeast gene YLR356W | yeast gene YMR094W | yeast gene YNL333W | yeast gene YOR157C | yeast gene YOR181W | yeast gene YOR198C | yeast gene YOR261C
0.7: yeast gene YLR429W | yeast gene YMR219W | yeast gene YMR275C | yeast gene YNL007C | yeast gene YOR355W | yeast gene YPL154C | yeast gene YPR103W
0.5: yeast gene YKL165C
1.2: yeast gene YKL008C | yeast gene YKL041W | yeast gene YLR120C | yeast gene YPL089C
1.3: yeast gene YKL193C | yeast gene YLR136C | yeast gene YNR010W
0.6: yeast gene YMR276W | yeast gene YOR124C
0.8: yeast gene YKL039W | yeast gene YOR117W | yeast gene YOR259C | yeast gene YPR108W
1.9: yeast gene YMR104C
0.9: yeast gene YKL139W | yeast gene YMR004W | yeast gene YOL013C | yeast gene YOL164W | yeast gene YOR132W | yeast gene YOR288C | yeast gene YOR383C
1.5: yeast gene YLR250W | yeast gene YNR069C | yeast gene YPL149W
1.1: yeast gene YLR362W | yeast gene YMR226C | yeast gene YNL006W | yeast gene YOR185C | yeast gene YPL109C
